These results are taken from PubChem BioAssay AID2060600 (Molecular Pharmacology Branch, DTP, NCI, 2025).

The structures appear in SMILES notation. Where “and” joins values, the source holds several entries; their conditions need not be identical. Identical values can stand only once.

For this experiment, the system named is 996289-038-R-J1-PDC complex spheroid viability. Put plainly: Anticancer human tumor 996289-038-R-J1-PDC patient-derived colon adenocarcinoma cell line growth inhibition [CLK]. To be noted: for viability, T/C: stronger effect = lower value. The method, boiled down: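 Patient-derived tumor cells grown as complex spheroids with HUVEC endothelial cells and mesenchymal stem cells, treated with drug combinations. Concentrations descend in half-log steps from near clinical Cmax, or from 10 microM if Cmax unknown.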

[1] abbreviates: curve of first compound, second compound 0.0316 µM.
[2] abbreviates: curve of first compound, second compound 0.1 µM.
Setting [3] is: curve of first compound, second compound 0.316 µM.
The mark [4] stands for this setting: curve of first compound, second compound 1 µM.
[5] abbreviates: curve of first compound, second compound 3.16 µM.
The mark [6] stands for this setting: curve of first compound, second compound 10 µM.
The mark [7] stands for this setting: second compound 0.0316 µM, first compound 0.00316 µM.
Setting [8] is: second compound 0.0316 µM, first compound 0.01 µM.
[9] abbreviates: second compound 0.0316 µM, first compound 0.0316 µM.
[10] abbreviates: second compound 0.0316 µM, first compound 0.1 µM.
[11] abbreviates: second compound 0.1 µM, first compound 0.00316 µM.
Where [12] appears, read: second compound 0.1 µM, first compound 0.01 µM.
The mark [13] stands for this setting: second compound 0.1 µM, first compound 0.0316 µM.
[14] abbreviates: second compound 0.1 µM, first compound 0.1 µM.
Where [15] appears, read: second compound 0.316 µM, first compound 0.00316 µM.
The mark [16] stands for this setting: second compound 0.316 µM, first compound 0.01 µM.
[17] abbreviates: second compound 0.316 µM, first compound 0.0316 µM.
Where [18] appears, read: second compound 0.316 µM, first compound 0.1 µM.
The mark [19] stands for this setting: second compound 1 µM, first compound 0.00316 µM.
[20] abbreviates: second compound 1 µM, first compound 0.01 µM.
Setting [21] is: second compound 1 µM, first compound 0.0316 µM.
The mark [22] stands for this setting: second compound 1 µM, first compound 0.1 µM.
Setting [23] is: second compound 3.16 µM, first compound 0.00316 µM.
Where [24] appears, read: second compound 3.16 µM, first compound 0.01 µM.
The mark [25] stands for this setting: second compound 3.16 µM, first compound 0.0316 µM.
Where [26] appears, read: second compound 3.16 µM, first compound 0.1 µM.
Where [27] appears, read: second compound 10 µM, first compound 0.00316 µM.
Where [28] appears, read: second compound 10 µM, first compound 0.01 µM.
The mark [29] stands for this setting: second compound 10 µM, first compound 0.0316 µM.
[30] abbreviates: second compound 10 µM, first compound 0.1 µM.
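Also: spheroids exposed to the agents for 7 days before readout.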

One may read the viability, T/C as the result in the treated group divided by that in the control group, in per cent. The IC50 is the point on the concentration scale where inhibition reaches its midpoint. Consider `COc1cccc2c1C(=O)c1c(O)c3c(c(O)c1C2=O)CC(O)(C(=O)CO)CC3OC1CC(N)C(O)C(C)O1` (stereo not given), for which the viability, T/C runs as follows: (compound 0.0316 µM) 100% and 103%; (compound 0.1 µM) 87.1% and 86.2%; (compound 0.316 µM) 76.5% and 79.6%; (compound 1 µM) 59.4% and 62.6%; (compound 3.16 µM) 49% and 51.9%; (compound 10 µM) 35.5% and 36.7%. Moreover, where the note is “curve of compound”, the IC50 was 2650 nM and 3330 nM.
As to `CN1CCN(c2cc(C(=O)Nc3cc4cc(-c5cnn(C)c5)ccc4cn3)ccn2)CC1`, the viability, T/C reads like this: (compound 0.0316 µM) 102% [middle of 12 runs]; (compound 0.1 µM) 95.1% [middle of 12 runs]; (compound 0.316 µM) 71.7% [middle of 12 runs]; (compound 1 µM) 4.43% [middle of 11 runs]; (compound 3.16 µM) 1.12% [middle of 11 runs]; (compound 10 µM) 0.43% [middle of 9 runs]. Besides, the IC50 (compound alone, run of 08/14/2023) was 461 nM [middle of 10 runs].
As for `O=c1[nH]cc(F)c(=O)[nH]1`, the viability, T/C was 99.2% and 101% (compound 0.0316 µM); 83.9% and 82.2% (compound 0.1 µM); 83.3% and 88.9% (compound 0.316 µM); 79.7% and 78.6% (compound 1 µM); 77.9% and 85.8% (compound 3.16 µM); 73.3% and 74.8% (compound 10 µM). Further, under “curve of compound”, the IC50 was more than 10000 nM.
In the case of `CCN1CCN(Cc2ccc(Nc3ncc(F)c(-c4cc(F)c5nc(C)n(C(C)C)c5c4)n3)nc2)CC1` + CNC(=O)c1ccc(Nc2nc(OC3CCCC3)c3c(-c4ccc5nc(C)oc5c4)c[nH]c3n2)c(OC)c1, the IC50 is, setting by setting: under setting [1], more than 1000 nM; under setting [2], more than 1000 nM; under setting [3], more than 1000 nM; under setting [4], more than 1000 nM; under setting [5], more than 1000 nM; under setting [6], more than 1000 nM. The viability, T/C was 109% under setting [7]; 103% under setting [8]; 106% under setting [9]; 97.6% under setting [10]; 92.6% (second compound 0.0316 µM, first compound 0.316 µM); 96.2% (second compound 0.0316 µM, first compound 1 µM). In addition, the viability, T/C is, setting by setting: under setting [11], 115%; under setting [12], 111%; under setting [13], 108%; under setting [14], 91.8%; (second compound 0.1 µM, first compound 0.316 µM) 86.5%; (second compound 0.1 µM, first compound 1 µM) 86.7%. In addition, the viability, T/C runs as follows: under setting [15], 79%; under setting [16], 81.2%; under setting [17], 80.8%; under setting [18], 75%; (second compound 0.316 µM, first compound 0.316 µM) 82.8%; (second compound 0.316 µM, first compound 1 µM) 76.8%. Also, the viability, T/C reads like this: under setting [19], 72.6%; under setting [20], 70.2%; under setting [21], 64.2%; under setting [22], 66.9%; (second compound 1 µM, first compound 0.316 µM) 64.8%; (second compound 1 µM, first compound 1 µM) 77.1%. Further, the viability, T/C runs as follows: under setting [23], 62.5%; under setting [24], 62.1%; under setting [25], 61.9%; under setting [26], 64.9%; (second compound 3.16 µM, first compound 0.316 µM) 73.2%; (second compound 3.16 µM, first compound 1 µM) 65.9%. For the same compound, the viability, T/C was 66% under setting [27]; 63.9% under setting [28]; 61.3% under setting [29]; 62.2% under setting [30]; 68.1% (second compound 10 µM, first compound 0.316 µM); 59.8% (second compound 10 µM, first compound 1 µM).
`Cn1ncnc1[C@H]1c2n[nH]c(=O)c3cc(F)cc(c23)N[C@@H]1c1ccc(F)cc1` + CN1CCN(c2cc(C(=O)Nc3cc4cc(-c5cnn(C)c5)ccc4cn3)ccn2)CC1: the IC50 runs as follows: under setting [1], more than 100 nM; under setting [2], more than 100 nM; under setting [3], more than 100 nM; under setting [4], less than 0.316 nM; under setting [5], less than 0.316 nM; under setting [6], less than 0.316 nM. The viability, T/C is, setting by setting: (second compound 0.0316 µM, first compound 0.000316 µM) 104%; (second compound 0.0316 µM, first compound 0.001 µM) 102%; under setting [7], 102%; under setting [8], 107%; under setting [9], 101%; under setting [10], 80.4%. Moreover, the viability, T/C reads like this: (second compound 0.1 µM, first compound 0.000316 µM) 88.8%; (second compound 0.1 µM, first compound 0.001 µM) 96.9%; under setting [11], 87.6%; under setting [12], 97%; under setting [13], 95.5%; under setting [14], 86.8%. Also, the viability, T/C by setting is: (second compound 0.316 µM, first compound 0.000316 µM) 72.3%; (second compound 0.316 µM, first compound 0.001 µM) 70.2%; under setting [15], 74.6%; under setting [16], 71.6%; under setting [17], 67.9%; under setting [18], 53%. Besides, the viability, T/C by setting is: (second compound 1 µM, first compound 0.000316 µM) 5.01%; (second compound 1 µM, first compound 0.001 µM) 4.06%; under setting [19], 4.98%; under setting [20], 6.96%; under setting [21], 6.27%; under setting [22], 4.4%. Besides, the viability, T/C (second compound 3.16 µM, first compound 0.000316 µM) was 0.64%; the viability, T/C (second compound 3.16 µM, first compound 0.001 µM) was 0.72%; the viability, T/C under setting [23] was 1.05%; the viability, T/C under setting [24] was 0.84%; the viability, T/C under setting [25] was 0.71%; the viability, T/C under setting [26] is 1.35%. In addition, the viability, T/C by setting is: (second compound 10 µM, first compound 0.000316 µM) 0.97%; (second compound 10 µM, first compound 0.001 µM) 0.51%; under setting [27], 1.37%; under setting [28], 2.6%; under setting [29], 0.38%; under setting [30], 0.92%.
